This is an account of results in paper PMC7614683, “A small molecule PI3Kα activator for cardioprotection and neuroregeneration” (Nature, 2023).

Molecules are shown by their SMILES.

Assay in all cases: SelectScreen LanthaScreen Binding
Common to all, as to conditions: 1000 nM
On the technique in general: TR-FRET usually uses a lanthanide donor and a delayed reading to cut background.

One assay addresses T1, DMPK (Homo sapiens, UniProt Q09013).
T1 sequence (Q09013 1-629): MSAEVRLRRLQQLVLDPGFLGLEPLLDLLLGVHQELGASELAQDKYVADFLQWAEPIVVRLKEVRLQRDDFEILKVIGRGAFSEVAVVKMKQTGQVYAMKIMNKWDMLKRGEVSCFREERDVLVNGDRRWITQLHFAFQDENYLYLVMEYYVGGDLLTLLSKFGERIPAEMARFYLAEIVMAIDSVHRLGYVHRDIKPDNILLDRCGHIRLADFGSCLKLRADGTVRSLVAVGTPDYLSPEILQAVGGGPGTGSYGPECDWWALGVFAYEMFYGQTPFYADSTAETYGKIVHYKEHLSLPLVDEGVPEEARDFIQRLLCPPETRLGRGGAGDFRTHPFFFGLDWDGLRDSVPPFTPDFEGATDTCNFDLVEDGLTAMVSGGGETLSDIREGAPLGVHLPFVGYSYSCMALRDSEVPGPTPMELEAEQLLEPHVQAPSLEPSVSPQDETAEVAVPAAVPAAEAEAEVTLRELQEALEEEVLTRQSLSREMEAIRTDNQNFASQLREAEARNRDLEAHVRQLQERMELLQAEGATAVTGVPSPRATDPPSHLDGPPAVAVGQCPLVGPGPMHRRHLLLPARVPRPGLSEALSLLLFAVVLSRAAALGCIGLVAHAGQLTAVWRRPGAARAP
The essentials: (§1)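 Percent effect values derive from SelectScreen Adapta, Lantha and Z-LYTE assays in which 1938 was present at 1 μM, spanning 133 protein kinases and 7 lipid kinases.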

The target of the next assay is MKNK2 (MNK2) (Homo sapiens, UniProt Q9HBH9). In outline:
as §1

For the next assay, the target named is T2, ULK2 (Homo sapiens, UniProt Q8IYT8).
T2 sequence (Q8IYT8 1-1036): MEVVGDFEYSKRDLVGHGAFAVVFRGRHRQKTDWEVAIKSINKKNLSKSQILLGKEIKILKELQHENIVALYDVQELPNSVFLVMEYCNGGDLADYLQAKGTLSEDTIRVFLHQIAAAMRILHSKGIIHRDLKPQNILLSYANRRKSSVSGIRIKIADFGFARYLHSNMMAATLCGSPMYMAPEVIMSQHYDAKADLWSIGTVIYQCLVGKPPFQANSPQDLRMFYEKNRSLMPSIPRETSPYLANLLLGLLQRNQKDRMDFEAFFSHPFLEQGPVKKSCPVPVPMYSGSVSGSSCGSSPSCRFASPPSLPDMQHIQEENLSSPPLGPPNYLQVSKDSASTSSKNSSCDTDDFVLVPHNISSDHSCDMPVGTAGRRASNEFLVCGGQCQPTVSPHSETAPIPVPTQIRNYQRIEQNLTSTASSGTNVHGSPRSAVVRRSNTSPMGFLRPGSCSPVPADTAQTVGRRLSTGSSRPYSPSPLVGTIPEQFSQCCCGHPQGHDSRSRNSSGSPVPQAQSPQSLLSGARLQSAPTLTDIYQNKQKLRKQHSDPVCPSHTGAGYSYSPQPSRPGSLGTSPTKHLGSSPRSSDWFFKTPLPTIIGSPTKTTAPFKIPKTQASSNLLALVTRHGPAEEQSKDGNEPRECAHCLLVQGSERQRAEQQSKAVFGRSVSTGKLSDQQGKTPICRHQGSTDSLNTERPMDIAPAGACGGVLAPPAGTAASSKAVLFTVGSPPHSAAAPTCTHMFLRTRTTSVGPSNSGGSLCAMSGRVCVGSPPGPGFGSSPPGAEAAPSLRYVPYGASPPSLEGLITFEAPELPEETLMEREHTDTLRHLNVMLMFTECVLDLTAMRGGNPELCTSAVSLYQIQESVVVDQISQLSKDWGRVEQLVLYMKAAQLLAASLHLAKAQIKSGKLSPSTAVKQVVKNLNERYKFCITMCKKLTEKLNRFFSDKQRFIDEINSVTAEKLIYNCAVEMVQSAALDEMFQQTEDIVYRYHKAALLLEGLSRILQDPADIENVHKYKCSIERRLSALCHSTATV
The essentials:
as §1

Chain of MKNK2 (MNK2) (Q9HBH9 whole entry): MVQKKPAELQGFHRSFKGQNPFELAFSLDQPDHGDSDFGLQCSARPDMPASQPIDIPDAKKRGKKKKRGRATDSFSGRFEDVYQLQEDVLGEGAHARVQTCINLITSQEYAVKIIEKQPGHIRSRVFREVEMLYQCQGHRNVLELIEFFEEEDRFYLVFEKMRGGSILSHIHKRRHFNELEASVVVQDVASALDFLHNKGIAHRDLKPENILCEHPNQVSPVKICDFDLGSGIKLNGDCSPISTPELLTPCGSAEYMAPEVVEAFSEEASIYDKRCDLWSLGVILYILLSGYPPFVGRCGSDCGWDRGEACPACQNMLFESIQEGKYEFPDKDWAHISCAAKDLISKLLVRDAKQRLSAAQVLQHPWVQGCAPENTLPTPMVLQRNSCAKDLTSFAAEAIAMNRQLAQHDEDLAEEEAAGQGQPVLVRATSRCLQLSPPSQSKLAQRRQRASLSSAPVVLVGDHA

`CCN1CCN(c2ccc(Nc3cc(Nc4cccc5c4N(C(C)=O)CC5)ccn3)cc2)CC1` [Compound 1938]: at DMPK, the “% Displacement Point 1” value stood at 4.22%, the “% Displacement Point 2” value is 0.782% and the “% Displacement mean” value is on record as 2.5%. For the same compound, at MKNK2 (MNK2), the “% Displacement Point 1” value came to 20%, the “% Displacement Point 2” value is on record as 17% and the “% Displacement mean” value was found to be 18%. On ULK2, the “% Displacement Point 1” value was determined as 3%, the “% Displacement Point 2” value is reported as -0.488% and the “% Displacement mean” value is on record as 1.23%.
